Measured values from patent publication US10919916B2, “Boron-containing small molecules” (Bill & Melinda Gates Foundation, priority 2016, dated 2021).
≈ marks a conversion by molar mass, not a printed value. Where two headings read alike, the source gives them in different places.

Tests used:
Type in all cases: cell-based
[1] = test system: Wolbachia pipientis in C6/36 cell line; assay: Anti-Wolbachia high-content assay; settings: read-out: EC50 Wolbachia pipientis in C6/36 cell line
Experimental: After 15 minutes, all media was removed from each well and fresh media (no stain) was added. Imaging of each well was accomplished using a Perkin Elmer Operetta high-content imaging system. Five fields per well were imaged using a confocal 60× objective with the Fluorescein filter (excitation filter: 460-490 nm; emission filter: 500-550 nm). Images were analyzed using the Perkin Elmer Harmony software to score each intact cell on the basis of texture complexity of the cytoplasm. Full details can be found in: […]. et al, J. Biomol.

[2] = test system: Staphylococcus aureus, MRSA (ATCC 33591); assay: Antibacterial MIC assay (microbroth dilution, CLSI); settings: read-out: MIC Staphylococcus aureus, MRSA (ATCC 33591)
Procedure, shortened: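 Microbroth dilution per CLSI M07-A10/M100-S25 in cation-adjusted Mueller-Hinton broth, with 3% lysed horse blood added for S. pneumoniae. Inoculum from a 0.5 McFarland direct colony suspension, diluted to 5×10^5 CFU/mL in the well. Compounds were 2-fold serially diluted; MIC read against a growth control.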

[3] = test system: Streptococcus pneumoniae (ATCC 49619); assay: as above
Procedure, shortened: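 CLSI broth microdilution: 2-fold compound dilutions in cation-adjusted Mueller-Hinton broth supplemented with 3% lysed horse blood for S. pneumoniae, inoculum 5×10^5 CFU/mL from a 0.5 McFarland direct colony suspension, with growth control.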

[4] = C6/36 (wAlbB) cells, 7 days at 26° C., 50% reduction of Wolbachia
[5] = microbroth dilution, cation-adjusted Mueller-Hinton broth, 35° C. for 16-20 hours
[6] = ATCC49619, microbroth dilution, 3% lysed horse blood, 35° C. for 16-20 hours, read-out: MIC Streptococcus pneumoniae (ATCC 49619)

| Compound | EC50 [1, 4] | MIC [2, 5] | MIC [3, 6] | EC50 ([1]; C6/36, […]) | MIC [2] | MIC ([3]; ATCC49619, read-out: MIC Streptococcus pneumoniae (ATCC 49619)) |
| --- | --- | --- | --- | --- | --- | --- |
| C=C[C@]1(C)C[C@@H](OC(=O)COc2ccc3c(c2)B(O)N(C(C)=O)N=C3)[C@]2(C)[C@H](C)CC[C@]3(C[C@H](O)C(=O)[C@H]32)[C@@H](C)[C@@H]1O [Compound 86, (2S,3aR,4R,5R,7S,8S,9R,9aS,12R)-2,8-dihydroxy-4,7,9,12-tetramethyl-3-oxo-7-vinyldecahydro-4,9a-propanocyclopenta[8]annulen-5-yl 2-((2-acetyl-1-hydroxy-1,2-dihydrobenzo[d][1,2,3]diazaborinin-7-yl)oxy)acetate] | 1 nM | < 0.25 µg/mL | 0.5 to 2 µg/mL (≈ 0.861 to 3.45 µM) |  |  |  |
| C=C[C@]1(C)C[C@@H](OC(=O)COc2ccc3c(c2F)B(O)OC3)[C@]2(C)[C@H](C)CC[C@]3(C[C@H](F)C(=O)[C@H]32)[C@@H](C)[C@@H]1O [Compound 39, (2S,3aR,4R,5R,7S,8S,9R,9aS,12R)-2-fluoro-8-hydroxy-4,7,9,12-tetramethyl-3-oxo-7-vinyldecahydro-4,9a-propanocyclopenta[8]annulen-5-yl 2-((7-fluoro-1-hydroxy-1,3-dihydrobenzo[c][1,2]oxaborol-6-yl)oxy)acetate] | 84 nM | < 0.25 µg/mL | 0.5 to 2 µg/mL (≈ 0.915 to 3.66 µM) |  |  |  |
| C=C[C@]1(C)C[C@@H](OC(=O)COc2ccc3c(c2)B(O)N(S(C)(=O)=O)N=C3)[C@]2(C)[C@H](C)CC[C@]3(C[C@H](F)C(=O)[C@H]32)[C@@H](C)[C@@H]1O [Compound 79, (2S,3aR,4R,5R,7S,8S,9R,9aS,12R)-2-fluoro-8-hydroxy-4,7,9,12-tetramethyl-3-oxo-7-vinyldecahydro-4,9a-propanocyclopenta[8]annulen-5-yl 2-((1-hydroxy-2-(methylsulfonyl)-1,2-dihydrobenzo[d][1,2,3]diazaborinin-7-yl)oxy)acetate] | 56 nM | 0.5 to 2 µg/mL (≈ 0.808 to 3.23 µM) | 0.5 to 2 µg/mL (≈ 0.808 to 3.23 µM) |  |  |  |
| C=C[C@]1(C)C[C@@H](OC(=O)COc2cc(CN(C)C)c3c(c2)B(O)OC3)[C@]2(C)[C@H](C)CC[C@]3(CCC(=O)[C@H]32)[C@@H](C)[C@@H]1O.Cl [Compound 13, (3aR,4R,5R,7S,8S,9R,9aS,12R)-8-hydroxy-4,7,9,12-tetramethyl-3-oxo-7-vinyldecahydro-4,9a-propanocyclopenta[8]annulen-5-yl 2-((4-((dimethylamino)methyl)-1-hydroxy-1,3-dihydrobenzo[c][1,2]oxaborol-6-yl)oxy)acetate Hydrochloride] | 81 nM | < 0.25 µg/mL | 0.5 to 2 µg/mL |  |  |  |
| C=C[C@]1(C)C[C@@H](OC(=O)COc2ccc3c(c2F)B(O)NN=C3)[C@]2(C)[C@H](C)CC[C@]3(CCC(=O)[C@H]32)[C@@H](C)[C@@H]1O [Compound 81, (3aR,4R,5R,7S,8S,9R,9aS,12R)-8-hydroxy-4,7,9,12-tetramethyl-3-oxo-7-vinyldecahydro-4,9a-propanocyclopenta[8]annulen-5-yl 2-((8-fluoro-1-hydroxy-1,2-dihydrobenzo[d][1,2,3]diazaborinin-7-yl)oxy)acetate] |  |  |  | 34 nM | < 0.25 µg/mL | < 0.25 µg/mL |
| C=C[C@]1(C)C[C@@H](OC(=O)CNc2cnc3c(c2)B(O)OC3)[C@]2(C)[C@H](C)CC[C@]3(CCC(=O)[C@H]32)[C@@H](C)[C@@H]1O [Compound 102, (3aR,4R,5R,7S,8S,9R,9aS,12R)-8-hydroxy-4,7,9,12-tetramethyl-3-oxo-7-vinyldecahydro-4,9a-propanocyclopenta[8]annulen-5-yl (1-hydroxy-1,3-dihydro-[1,2]oxaborolo[4,3-b]pyridin-6-yl)glycinate] | > 1000 nM | > 64 µg/mL | > 64 µg/mL |  |  |  |
| C=C[C@]1(C)C[C@@H](OC(=O)COc2ccc3c(c2)B(O)OC3CN(C)C)[C@]2(C)[C@H](C)CC[C@]3(CCC(=O)[C@H]32)[C@@H](C)[C@@H]1O (stereo partly drawn) [Compound 27, (3aR,4R,5R,7S,8S,9R,9aS,12R)-8-hydroxy-4,7,9,12-tetramethyl-3-oxo-7-vinyldecahydro-4,9a-propanocyclopenta[8]annulen-5-yl 2-((3-((dimethylamino)methyl)-1-hydroxy-1,3-dihydrobenzo[c][1,2]oxaborol-6-yl)oxy)acetate] | 27 nM | < 0.25 µg/mL | < 0.25 µg/mL |  |  |  |
| C=C[C@]1(C)C[C@@H](OC(=O)COc2ccc3c(c2)B(O)OC3)[C@]2(C)[C@H](C)CC[C@]3(C[C@H](F)C(=O)[C@H]32)[C@@H](C)[C@@H]1O [Compound 38, (2S,3aR,4R,5R,7S,8S,9R,9aS,12R)-2-fluoro-8-hydroxy-4,7,9,12-tetramethyl-3-oxo-7-vinyldecahydro-4,9a-propanocyclopenta[8]annulen-5-yl 2-((1-hydroxy-1,3-dihydrobenzo[c][1,2]oxaborol-6-yl)oxy)acetate] | 9 nM | < 0.25 µg/mL | 0.5 to 2 µg/mL (≈ 0.946 to 3.78 µM) |  |  |  |
| C=C[C@]1(C)C[C@@H](OC(=O)COc2ccc3c(c2)B(O)OC3CC(=O)OC(C)(C)C)[C@]2(C)[C@H](C)CC[C@]3(CCC(=O)[C@H]32)[C@@H](C)[C@@H]1O (stereo partly drawn) [Compound 24, tert-Butyl 2-(1-hydroxy-6-(2-(((3aR,4R,5R,7S,8S,9R,9aS,12R)-8-hydroxy-4,7,9,12-tetramethyl-3-oxo-7-vinyldecahydro-4,9a-propanocyclopenta[8]annulen-5-yl)oxy)-2-oxoethoxy)-1,3-dihydrobenzo[c][1,2]oxaborol-3-yl)acetate] | > 1000 nM | < 0.25 µg/mL | 0.5 to 2 µg/mL (≈ 0.801 to 3.2 µM) |  |  |  |

Further lines, with some results ahead:

| EC50 [1, 4] | MIC [2, 5] | MIC [3, 6] | Compound | EC50 ([1]; C6/36, […]) | MIC [2] | MIC ([3]; ATCC49619, read-out: MIC Streptococcus pneumoniae (ATCC 49619)) |
| --- | --- | --- | --- | --- | --- | --- |
| > 1000 nM | < 0.25 µg/mL | 0.5 to 2 µg/mL (≈ 0.858 to 3.43 µM) | C=C[C@]1(C)C[C@@H](OC(=O)COc2ccc3c(c2)B(O)OC3CC(=O)OC)[C@]2(C)[C@H](C)CC[C@]3(CCC(=O)[C@H]32)[C@@H](C)[C@@H]1O (stereo partly drawn) [Compound 26, (3aR,4R,5R,7S,8S,9R,9aS,12R)-8-hydroxy-4,7,9,12-tetramethyl-3-oxo-7-vinyldecahydro-4,9a-propanocyclopenta[8]annulen-5-yl 2-((1-hydroxy-3-(2-methoxy-2-oxoethyl)-1,3-dihydrobenzo[c][1,2]oxaborol-6-yl)oxy)acetate] |  |  |  |
| 1 nM | < 0.25 µg/mL | < 0.25 µg/mL | C=C[C@]1(C)C[C@@H](OC(=O)COc2ccc3c(c2)B(O)N(C(=O)OC(C)(C)C)N=C3)[C@]2(C)[C@H](C)CC[C@]3(C[C@H](F)C(=O)[C@H]32)[C@@H](C)[C@@H]1O [Compound 73, tert-butyl 7-(2-(((2S,3aR,4R,5R,7S,8S,9R,9aS,12R)-2-fluoro-8-hydroxy-4,7,9,12-tetramethyl-3-oxo-7-vinyldecahydro-4,9a-propanocyclopenta[8]annulen-5-yl)oxy)-2-oxoethoxy)-1-hydroxybenzo[d][1,2,3]diazaborinine-2(1H)-carboxylate] |  |  |  |
| 52 nM | < 0.25 µg/mL | 0.5 to 2 µg/mL (≈ 0.918 to 3.67 µM) | C=C[C@]1(C)C[C@@H](OC(=O)COc2cc3c(cc2F)COB3O)[C@]2(C)[C@H](C)CC[C@]3(C[C@H](O)C(=O)[C@H]32)[C@@H](C)[C@@H]1O [Compound 37, (2S,3aR,4R,5R,7S,8S,9R,9aS,12R)-2,8-dihydroxy-4,7,9,12-tetramethyl-3-oxo-7-vinyldecahydro-4,9a-propanocyclopenta[8]annulen-5-yl 2-((5-fluoro-1-hydroxy-1,3-dihydrobenzo[c][1,2]oxaborol-6-yl)oxy)acetate] |  |  |  |
| 613 nM | 0.5 to 2 µg/mL (≈ 0.81 to 3.24 µM) | 0.5 to 2 µg/mL (≈ 0.81 to 3.24 µM) | C=C[C@]1(C)C[C@@H](OC(=O)COc2ccc3c(c2)B(O)OC3CNS(C)(=O)=O)[C@]2(C)[C@H](C)CC[C@]3(CCC(=O)[C@H]32)[C@@H](C)[C@@H]1O (stereo partly drawn) [Compound 23, (3aR,4R,5R,7S,8S,9R,9aS,12R)-8-hydroxy-4,7,9,12-tetramethyl-3-oxo-7-vinyldecahydro-4,9a-propanocyclopenta[8]annulen-5-yl 2-((1-hydroxy-3-(methylsulfonamidomethyl)-1,3-dihydrobenzo[c][1,2]oxaborol-6-yl)oxy)acetate] |  |  |  |
| > 1000 nM | 0.5 to 2 µg/mL (≈ 0.978 to 3.91 µM) | 4 to 32 µg/mL (≈ 7.82 to 62.6 µM) | C=C[C@]1(C)C[C@@H](OC(=O)COc2cnc3c(c2)B(O)OC3)[C@]2(C)[C@H](C)CC[C@]3(CCC(=O)[C@H]32)[C@@H](C)[C@@H]1O [Compound 101, (3aR,4R,5R,7S,8S,9R,9aS,12R)-8-hydroxy-4,7,9,12-tetramethyl-3-oxo-7-vinyldecahydro-4,9a-propanocyclopenta[8]annulen-5-yl 2-((1-hydroxy-1,3-dihydro-[1,2]oxaborolo[4,3-b]pyridin-6-yl)oxy)acetate] |  |  |  |
| 13 nM | 0.5 to 2 µg/mL (≈ 0.923 to 3.69 µM) | 0.5 to 2 µg/mL (≈ 0.923 to 3.69 µM) | C=C[C@]1(C)C[C@@H](OC(=O)COc2ccc3c(c2)B(O)ON=C3)[C@]2(C)[C@H](C)CC[C@]3(C[C@H](F)C(=O)[C@H]32)[C@@H](C)[C@@H]1O [Compound 99, (2S,3aR,4R,5R,7S,8S,9R,9aS,12R)-2-fluoro-8-hydroxy-4,7,9,12-tetramethyl-3-oxo-7-vinyldecahydro-4,9a-propanocyclopenta[8]annulen-5-yl 2-((1-hydroxy-1H-benzo[d][1,2,6]oxazaborinin-7-yl)oxy)acetate] |  |  |  |
